What was measured:
barnyardgrass = test: Test A pre-/postemergence herbicide test; type: in vivo, Echinochloa crus-galli
How it was run: (§1)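 Sandy loam soil given preemergence directed spray; plants at 2 to 10 cm, one- to two-leaf stage, sprayed to runoff postemergence, compounds in non-phytotoxic solvent with surfactant. Injury rated visually versus untreated controls after about ten greenhouse days, 0 (no effect) to 100 (complete control); dash means not tested.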

giant foxtail = test: Test A pre-/postemergence herbicide test; type: in vivo, Setaria faberi
How it was run: as §1

redroot pigweed = test: Test A pre-/postemergence herbicide test; type: in vivo, Amaranthus retroflexus
How it was run: as §1

bermudagrass = test: Test C pre-/postemergence herbicide test; type: in vivo, Cynodon dactylon
How it was run: (§2)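 Preemergence: seeds planted and treated with compound in non-phytotoxic solvent with surfactant; postemergence: plants at 2 to 18 cm (1- to 4-leaf stage) sprayed likewise. Kept in greenhouse 12 to 14 days, then visually rated against controls, 0 (no effect) to 100 (complete control).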

cocklebur = test: Test C pre-/postemergence herbicide test; type: in vivo, Xanthium strumarium; conditions: for Cocklebur plant response rating: 500 g ai/ha
How it was run: as §2

woolly cupgrass = test: Test C pre-/postemergence herbicide test; type: in vivo, Eriochloa villosa; conditions: for Cupgrass, Woolly plant response rating: 500 g ai/ha
How it was run: as §2

goosegrass = test: Test C pre-/postemergence herbicide test; type: in vivo, Eleusine indica; conditions: for Goosegrass plant response rating: 500 g ai/ha
How it was run: as §2

kochia = test: Test C pre-/postemergence herbicide test; type: in vivo, Kochia scoparia
How it was run: as §2

lambsquarters = test: Test C pre-/postemergence herbicide test; type: in vivo, Chenopodium album; conditions: for Lambsquarters plant response rating: 500 g ai/ha
How it was run: as §2

morningglory = test: Test C pre-/postemergence herbicide test; type: in vivo, Ipomoea coccinea; design: key to Plant response rating, Morningglory: 0 = no effect, 100 = complete control; conditions: for Morningglory plant response rating: 500 g ai/ha
How it was run: as §2

[1] = system: smallflower umbrella sedge; test: Test C flooded paddy test; type: in vivo, Cyperus difformis
ducksalad = test: Test C flooded paddy test; type: in vivo, Heteranthera limosa
[2] = Postemergence, 500 g ai/ha, 0 to 100 scale, 0 no effect, 100 complete control
[3] = Postemergence, 2000 g ai/ha, 0 to 100 scale, 0 no effect, 100 complete control
[4] = Preemergence, 500 g ai/ha, visual rating, 0 to 100 scale (0 no effect, 100 complete control)
[5] = Preemergence, 2000 g ai/ha, visual rating, 0 to 100 scale (0 no effect, 100 complete control)
[6] = 125 g ai/ha, scale 0 (no effect) to 100 (complete control), visual, 12 to 14 days, preemergence
[7] = 250 g ai/ha, scale 0 to 100 (0 no effect, 100 complete control), visual, 12 to 14 days, preemergence
[8] = Postemergence, 250 g ai/ha, scale 0 to 100, 0 no effect, 100 complete control
[9] = Preemergence, 500 g ai/ha, scale 0 to 100, 0 no effect, 100 complete control
[10] = Preemergence, scale 0 to 100, 0 no effect, 100 complete control
[11] = postemergence, 125 g ai/ha, scale 0 to 100
[12] = postemergence, 62 g ai/ha, scale 0 to 100
[13] = 62 g ai/ha, scale 0 to 100 (0 no effect, 100 complete control)
[14] = 125 g ai/ha, scale 0 to 100 (0 no effect, 100 complete control)
[15] = 250 g ai/ha, scale of 0 to 100, 0 is no effect, 100 is complete control
[16] = 500 g ai/ha, visual rating after 12 to 14 days, scale 0 to 100 (0 no effect, 100 complete control)

CCn1nc(C(C)(C)C)cc1C(=O)Nc1cccc(C(=O)NC2CC2)n1 [Compound 146]
0: Plant response rating, Bermudagrass (bermudagrass; [8]) | Plant response rating (0 = no effect, 100 = complete control), Cocklebur (cocklebur; 62 g ai/ha, preemergence) | Plant response rating, Cocklebur (cocklebur; [6]) | Plant response rating, Cocklebur (cocklebur; [7]) | Cocklebur plant response rating (cocklebur; [10]) | Plant response rating (0 = no effect, 100 = complete control), Cupgrass, Woolly (woolly cupgrass; 62 g ai/ha, preemergence) | Plant response rating, Cupgrass, Woolly (woolly cupgrass; [6]) | Plant response rating, Cupgrass, Woolly (woolly cupgrass; [7]) | Cupgrass, Woolly plant response rating (woolly cupgrass; [10]) | Plant response rating (0 = no effect, 100 = complete control), Goosegrass (goosegrass; 62 g ai/ha, preemergence) | Plant response rating, Goosegrass (goosegrass; [6]) | Goosegrass plant response rating (goosegrass; Postemergence, scale 0 to 100) | Plant response rating, Goosegrass (goosegrass; [8]) | Plant response rating, Goosegrass (goosegrass; [11]) | Plant response rating, Goosegrass (goosegrass; [12]) | Plant response rating (0 = no effect, 100 = complete control), Morningglory (morningglory; 62 g ai/ha, preemergence) | Morningglory plant response rating (morningglory; Postemergence, scale 0 to 100) | Plant response rating, Morningglory (morningglory; [8]) | Plant response rating, Morningglory (morningglory; [11]) | Plant response rating, Morningglory (morningglory; [12]) | Ducksalad plant response rating (ducksalad; [13]) | Ducksalad plant response rating (ducksalad; [14])
60: Plant response rating, Bermudagrass (bermudagrass; [6]) | Goosegrass plant response rating (goosegrass; [10]) | Sedge, Umbrella plant response rating [1, 13]
95: Pigweed plant response rating (redroot pigweed; [5])
100: Plant response rating, Pigweed (redroot pigweed; [3]) | Kochia plant response rating (kochia; [9]) | Lambsquarters plant response rating (lambsquarters; Postemergence, scale 0 to 100) | Plant response rating, Lambsquarters (lambsquarters; [8]) | Lambsquarters plant response rating (lambsquarters; [10])
20: Cocklebur plant response rating (cocklebur; Postemergence, scale 0 to 100) | Plant response rating, Kochia (kochia; [8]) | Ducksalad plant response rating (ducksalad; [15]) | Plant response rating, Ducksalad (ducksalad; [16])
80: Barnyardgrass plant response rating (barnyardgrass; [5]) | Plant response rating, Lambsquarters (lambsquarters; [11]) | Sedge, Umbrella plant response rating [1, 14]
90: Bermudagrass plant response rating (bermudagrass; [9]) | Plant response rating, Lambsquarters (lambsquarters; [6]) | Sedge, Umbrella plant response rating [1, 15] | Plant response rating, Sedge, Umbrella [1, 16]
70: Barnyardgrass plant response rating (barnyardgrass; [4]) | Plant response rating, Bermudagrass (bermudagrass; [7])
30: Cupgrass, Woolly plant response rating (woolly cupgrass; Postemergence, scale 0 to 100) | Plant response rating, Cupgrass, Woolly (woolly cupgrass; [8])
75: Plant response rating, Barnyardgrass (barnyardgrass; [3])
50: Barnyardgrass plant response rating (barnyardgrass; [2]) | Plant response rating (0 = no effect, 100 = complete control), Kochia (kochia; 62 g ai/ha, preemergence) | Plant response rating, Kochia (kochia; [6]) | Morningglory plant response rating (morningglory; [10])
40: Plant response rating, Foxtail, Giant (giant foxtail; [3]) | Plant response rating, Lambsquarters (lambsquarters; [12])
5: Plant response rating, Cocklebur (cocklebur; [11]) | Plant response rating, Cocklebur (cocklebur; [12]) | Plant response rating, Kochia (kochia; [12]) | Plant response rating, Morningglory (morningglory; [6])
45: Foxtail, Giant plant response rating (giant foxtail; [4]) | Foxtail, Giant plant response rating (giant foxtail; [5])
10: Plant response rating (0 = no effect, 100 = complete control), Bermudagrass (bermudagrass; 62 g ai/ha, preemergence) | Plant response rating, Cocklebur (cocklebur; [8]) | Plant response rating, Cupgrass, Woolly (woolly cupgrass; [11]) | Plant response rating, Cupgrass, Woolly (woolly cupgrass; [12])
85: Pigweed plant response rating (redroot pigweed; [2]) | Pigweed plant response rating (redroot pigweed; preemergence, 500 g ai/ha, visual injury, 0 to 100 scale (0 no effect, 100 complete control)) | Plant response rating (0 = no effect, 100 = complete control), Lambsquarters (lambsquarters; 62 g ai/ha, preemergence)
15: Foxtail, Giant plant response rating (giant foxtail; [2])

— patent US20060069132A1, “Azolecarboxamide herbicides” (priority 2004, published 2006)
